{
  "source": "patent US12569499B2",
  "about": "“Intravenous formulations of RK-33” (NATSAR PHARMACEUTICALS, INC., priority 2021, dated 2026)",
  "key": {"[1]": {"assay": "Qualitative solubility of RK-33 in various solubilizers", "type": "physicochemical", "settings": "for solubility: thermodynamic from solid", "method": "The degree of solubility of RK-33 in various solubilizers were tested. RK-33 was added to the solubilizer and observed for formation of homogenous molecular dispersion and physical appearance."}, "tumor cells": {"test_system": "tumor cells", "settings": "sarcoma, breast, prostate, colorectal, lung, medulloblastoma; cited from earlier work"}, "DDX3": {"molecular_target": "DDX3 (Homo sapiens, UniProt O00571)", "sequence (O00571 whole entry)": "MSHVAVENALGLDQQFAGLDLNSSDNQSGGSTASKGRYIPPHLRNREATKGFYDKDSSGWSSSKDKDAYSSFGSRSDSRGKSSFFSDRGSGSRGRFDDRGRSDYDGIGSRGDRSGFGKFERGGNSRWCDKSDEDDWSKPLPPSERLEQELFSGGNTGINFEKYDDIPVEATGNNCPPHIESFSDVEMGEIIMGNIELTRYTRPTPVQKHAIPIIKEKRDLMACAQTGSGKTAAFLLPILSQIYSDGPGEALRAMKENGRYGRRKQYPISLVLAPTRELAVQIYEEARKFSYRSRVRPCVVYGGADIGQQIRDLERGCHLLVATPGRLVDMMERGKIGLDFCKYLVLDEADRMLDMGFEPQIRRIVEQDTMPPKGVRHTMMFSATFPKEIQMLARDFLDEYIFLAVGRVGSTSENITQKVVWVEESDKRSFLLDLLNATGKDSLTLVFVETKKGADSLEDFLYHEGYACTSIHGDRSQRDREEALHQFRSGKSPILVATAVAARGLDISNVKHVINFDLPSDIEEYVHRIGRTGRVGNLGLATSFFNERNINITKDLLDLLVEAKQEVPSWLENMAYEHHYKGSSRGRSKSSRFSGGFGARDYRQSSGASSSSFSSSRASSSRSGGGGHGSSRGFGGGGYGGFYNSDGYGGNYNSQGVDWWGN", "settings": "Oncogene 27(28): 3912-3922 (2008); cited from earlier work"}, "[2]": {"assay": "Formulation appearance (color, visual precipitation, clarity)", "type": "physicochemical", "settings": "with 50% PEG 200 and 4% HPβCD", "method": "RK-33 formulations comprising of various combinations of solvents and polymers were prepared and analyzed for color, visual precipitation and clarity.\nFormulations comprising of various combinations of solvents and polymers were prepared with an intralipid emulsion used to provide calories to patients who receive an injection into the vein. The prepared formulations were then analyzed for color, visual precipitation and clarity.\nFormulations comprising of various combinations of solvents and polymers, including Captisol®, were prepared. The formulations were analyzed for color, visual precipitation and clarity."}},
  "data": [
    {"smiles": "COc1ccc(Cn2c3ncnc4c(ncn4Cc4ccc(OC)cc4)c-3nc2=O)cc1", "note": "[RK-33]", "values": [
      {"measurement": "solubility", "setting": "[1]; aqueous buffer, solvent Water (pH 4)", "result": "< 1000", "unit": "µg/mL"},
      {"measurement": "solubility", "setting": "[1]; aqueous buffer, solvent Water (pH 8)", "result": "< 1000", "unit": "µg/mL"},
      {"measurement": "solubility", "setting": "[1]; aqueous buffer, solvent Water (pH 10)", "result": "< 1000", "unit": "µg/mL"},
      {"measurement": "solubility", "setting": "[1]; oil or lipid, solvent Corn oil", "result": "< 1000", "unit": "µg/mL"},
      {"measurement": "solubility", "setting": "[1]; oil or lipid, solvent Gelucire 44/14", "result": "< 1000", "unit": "µg/mL"},
      {"measurement": "solubility", "setting": "[1]; oil or lipid, solvent Labrafil 1944CS", "result": "< 1000", "unit": "µg/mL"},
      {"measurement": "solubility", "setting": "[1]; oil or lipid, solvent Miglyol 810", "result": "< 1000", "unit": "µg/mL"},
      {"measurement": "solubility", "setting": "[1]; oil or lipid, solvent Oleic acid", "result": "< 1000", "unit": "µg/mL"},
      {"measurement": "solubility", "setting": "[1]; oil or lipid, solvent Olive oil", "result": "< 1000", "unit": "µg/mL"},
      {"measurement": "solubility", "setting": "[1]; organic solvent or mixture, solvent Benzyl alcohol", "result": "> 250000", "unit": "µg/mL"},
      {"measurement": "solubility", "setting": "[1]; organic solvent or mixture, solvent DMA", "result": "> 100000", "unit": "µg/mL"},
      {"measurement": "solubility", "setting": "[1]; organic solvent or mixture, solvent DMSO", "result": "> 100000", "unit": "µg/mL"},
      {"measurement": "solubility", "setting": "[1]; organic solvent or mixture, solvent Ethanol", "result": "< 1000", "unit": "µg/mL"},
      {"measurement": "solubility", "setting": "[1]; organic solvent or mixture, solvent Glycerin", "result": "< 1000", "unit": "µg/mL"},
      {"measurement": "solubility", "setting": "[1]; organic solvent or mixture, solvent Glycerol formal", "result": "> 75000", "unit": "µg/mL"},
      {"measurement": "solubility", "setting": "[1]; organic solvent or mixture, solvent NMP", "result": "> 100000", "unit": "µg/mL"},
      {"measurement": "solubility", "setting": "[1]; organic solvent or mixture, solvent PEG 200", "result": "~12000", "unit": "µg/mL"},
      {"measurement": "solubility", "setting": "[1]; organic solvent or mixture, solvent PEG300", "result": "~10000", "unit": "µg/mL"},
      {"measurement": "solubility", "setting": "[1]; organic solvent or mixture, solvent PEG 400", "result": "5000 to 10000", "unit": "µg/mL"},
      {"measurement": "solubility", "setting": "[1]; organic solvent or mixture, solvent PG", "result": "1000 to 5000", "unit": "µg/mL"},
      {"measurement": "solubility", "setting": "[1]; simulated gastric fluid, solvent Water (pH 1.6)", "result": "< 1000", "unit": "µg/mL"},
      {"measurement": "Observation", "setting": "[1]; solvent Benzyl alcohol", "result": "Clear, yellow colored solution"},
      {"measurement": "Observation", "setting": "[1]; solvent Corn oil", "result": "Dispersion"},
      {"measurement": "Observation", "setting": "[1]; solvent DMA", "result": "Clear, yellow colored solution"},
      {"measurement": "Observation", "setting": "[1]; solvent DMSO", "result": "Clear, yellow colored solution"},
      {"measurement": "Observation", "setting": "[1]; solvent Ethanol", "result": "Yellow dispersion"},
      {"measurement": "Observation", "setting": "[1]; solvent Gelucire 44/14", "result": "Dispersion"},
      {"measurement": "Observation", "setting": "[1]; solvent Glycerin", "result": "Dispersion"},
      {"measurement": "Observation", "setting": "[1]; solvent Glycerol formal", "result": "Clear, yellow colored solution"},
      {"measurement": "Observation", "setting": "[1]; solvent Labrafil 1944CS", "result": "Dispersion"},
      {"measurement": "Observation", "setting": "[1]; solvent Miglyol 810", "result": "Dispersion"},
      {"measurement": "Observation", "setting": "[1]; solvent NMP", "result": "Clear, yellow colored solution"},
      {"measurement": "Observation", "setting": "[1]; solvent Oleic acid", "result": "Dispersion"},
      {"measurement": "Observation", "setting": "[1]; solvent Olive oil", "result": "Dispersion"},
      {"measurement": "Observation", "setting": "[1]; solvent PEG 200", "result": "Clear, yellow colored solution"},
      {"measurement": "Observation", "setting": "[1]; solvent PEG300", "result": "Clear, yellow colored solution"},
      {"measurement": "Observation", "setting": "[1]; solvent PEG 400", "result": "Clear, yellow colored solution"},
      {"measurement": "Observation", "setting": "[1]; solvent PG", "result": "Clear, yellow colored solution"},
      {"measurement": "Observation", "setting": "[1]; solvent Water", "result": "Poor wettability"},
      {"measurement": "Observation", "setting": "[1]; solvent Water (pH 1.6)", "result": "Poor wettability"},
      {"measurement": "Observation", "setting": "[1]; solvent Water (pH 4)", "result": "Poor wettability"},
      {"measurement": "Observation", "setting": "[1]; solvent Water (pH 8)", "result": "Poor wettability"},
      {"measurement": "Observation", "setting": "[1]; solvent Water (pH 10)", "result": "Poor wettability"},
      {"measurement": "solubility", "setting": "[1]; solvent Water", "result": "< 1000", "unit": "µg/mL"},
      {"measurement": "Inhibiting the growth of tumor cells", "setting": "tumor cells", "result": "effective results in inhibiting the growth of tumor cells"},
      {"measurement": "Effect of targeting DDX3 on cells", "setting": "DDX3", "result": "promotes cell death"},
      {"measurement": "RK-33 formulation concentration achieved", "setting": "[2]", "result": 2.5, "unit": "mg/mL"}
    ]}
  ]
}
